In the supplement of paper PMC11061612:

Assays:
[1] = system: BICR10 (Oral Cavity Carcinoma); experiment: Bliss excess, mean over the matrix (fraction); higher = more synergy
Method in brief: (§1)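 After 24 hours at 37°C and 5% CO2 in 1536-well plates, cells in DMEM/F12 or RPMI plus 10% FBS received two-drug dose matrices for 72 hours. Viability came from CellTiter-Glo 2.0 luminescence and was scaled as inhibition, anchored at 0 by vehicle wells and at 1 by blank wells. Combination Emax is taken as the second-highest inhibition in the matrix, and Bliss excess as the observed combination effect less EA + EB − EA·EB, with EA and EB the single-agent effects.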

[2] = system: DMS-114 (Small Cell Lung Carcinoma); experiment: as above
Method in brief: as §1

[3] = system: KU812 (Chronic Myelogenous Leukemia); experiment: as above
Method in brief: as §1

[4] = system: OCI-AML3 (Acute Myeloid Leukemia); experiment: as above
Method in brief: as §1

[5] = system: BICR10 (Oral Cavity Carcinoma); experiment: combination Emax (second highest fraction inhibited in the dose matrix, 72 h); higher = more inhibition; extreme values may be limits of the assay
Method in brief: as §1

[6] = system: OCI-AML3 (Acute Myeloid Leukemia); experiment: as above
Method in brief: as §1
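For Bliss excess, mean over the matrix in this document: after 72 h of two-drug dosing.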

## CN(C)CCCOc1ccc(-c2ccc3ncc4c(c3c2)n(C2CCOCC2)c(=O)n4C)cn1 [AZD0156] + O=C(c1cc(Cc2n[nH]c(=O)c3ccccc23)ccc1F)N1CCN(C(=O)C2CC2)CC1 [Olaparib] (first compound max 3 µM, partner max 3 µM)
[1]
  Bliss excess: 0.0275
[2]
  Bliss excess: -0.0425
[3]
  Bliss excess: 0.264
[4]
  Bliss excess: 0.128
[5]
  combination Emax: 0.348
[6]
  combination Emax: 0.392

## C=CCn1c(=O)c2cnc(Nc3ccc(N4CCN(C)CC4)cc3)nc2n1-c1cccc(C(C)(C)O)n1 [AZD1775] + C1CN(CCC1(C(=O)N[C@@H](CCO)C2=CC=C(C=C2)Cl)N)C3=NC=NC4=C3C=CN4 [Capivasertib] (first compound max 3 µM, partner max 3 µM)
[1]
  Bliss excess: -0.0418
[2]
  Bliss excess: -0.0132
[3]
  Bliss excess: -0.0326
[4]
  Bliss excess: 0.0051
[5]
  combination Emax: 0.829
[6]
  combination Emax: 0.914

## CC(=O)c1c(C)c2cnc(Nc3ccc(N4CCNCC4)cn3)nc2n(C2CCCC2)c1=O [Palbociclib] + CC1(C)CCC(CN2CCN(c3ccc(C(=O)NS(=O)(=O)c4ccc(NCC5CCOCC5)c([N+](=O)[O-])c4)c(Oc4cnc5[nH]ccc5c4)c3)CC2)=C(c2ccc(Cl)cc2)C1 [Venetoclax] (first compound max 10 µM, 7x7, partner max 1 µM)
[2]
  Bliss excess: -0.0282
[3]
  Bliss excess: -0.0401
[4]
  Bliss excess: -0.0679
[6]
  combination Emax: 0.585

## CC(=O)c1c(C)c2cnc(Nc3ccc(N4CCNCC4)cn3)nc2n(C2CCCC2)c1=O [Palbociclib] + Cc1c2c(nn1C)CSCc1cc(n(C)n1)CSc1cc(c3ccccc3c1)OCCCc1c(C(=O)O)n(C)c3c-2c(Cl)ccc13 [AZD5991] (first compound max 10 µM, 7x7, partner max 1 µM)
[2]
  Bliss excess: -0.0083
[3]
  Bliss excess: -0.0351
[4]
  Bliss excess: 0.0376
[6]
  combination Emax: 1

## CC(=O)c1c(C)c2cnc(Nc3ccc(N4CCNCC4)cn3)nc2n(C2CCCC2)c1=O [Palbociclib] + Cn1cnc2c(F)c(Nc3ccc(Br)cc3Cl)c(C(=O)NOCCO)cc21 [Selumetinib] (first compound max 10 µM, 7x7, partner max 10 µM)
[2]
  Bliss excess: -0.0065
[3]
  Bliss excess: -0.0536
[4]
  Bliss excess: 0.0289
[6]
  combination Emax: 0.935

## C[C@@H](c1ccc2nccn2c1)n1nnc2ncc(-c3cnn(C)c3)nc21 [Savolitinib] + CC1(C)CCC(CN2CCN(c3ccc(C(=O)NS(=O)(=O)c4ccc(NCC5CCOCC5)c([N+](=O)[O-])c4)c(Oc4cnc5[nH]ccc5c4)c3)CC2)=C(c2ccc(Cl)cc2)C1 [Venetoclax] (first compound max 1 µM, 7x7, partner max 1 µM)
[2]
  Bliss excess: 0.0131
[3]
  Bliss excess: -0.0303
[4]
  Bliss excess: -0.0358
[6]
  combination Emax: 0.154

## C[C@@H](c1ccc2nccn2c1)n1nnc2ncc(-c3cnn(C)c3)nc21 [Savolitinib] + Cc1c2c(nn1C)CSCc1cc(n(C)n1)CSc1cc(c3ccccc3c1)OCCCc1c(C(=O)O)n(C)c3c-2c(Cl)ccc13 [AZD5991] (first compound max 1 µM, 7x7, partner max 1 µM)
[2]
  Bliss excess: -0.0755
[3]
  Bliss excess: 0.0064
[4]
  Bliss excess: -0.0103
[6]
  combination Emax: 0.967

## Cn1cnc2c(F)c(Nc3ccc(Br)cc3Cl)c(C(=O)NOCCO)cc21 [Selumetinib] + C=CCn1c(=O)c2cnc(Nc3ccc(N4CCN(C)CC4)cc3)nc2n1-c1cccc(C(C)(C)O)n1 [AZD1775] (first compound max 10 µM, partner max 1 µM)
[2]
  Bliss excess: -0.0351
[3]
  Bliss excess: -0.0367
[4]
  Bliss excess: -0.0213
[6]
  combination Emax: 0.94

## Cn1cnc2c(F)c(Nc3ccc(Br)cc3Cl)c(C(=O)NOCCO)cc21 [Selumetinib] + CC(C)n1c(=O)n(C)c2cnc3cc(F)c(-c4ccc(OCCCN5CCCCC5)nc4)cc3c21 [AZD1390] (first compound max 10 µM, 7x7, partner max 0.3 µM)
[2]
  Bliss excess: -0.0191
[3]
  Bliss excess: -0.0227
[4]
  Bliss excess: -0.0696
[6]
  combination Emax: 0.909

## Cn1cnc2c(F)c(Nc3ccc(Br)cc3Cl)c(C(=O)NOCCO)cc21 [Selumetinib] + CCN(CCO)CCCOc1ccc2c(Nc3cc(CC(=O)Nc4cccc(F)c4)[nH]n3)ncnc2c1 [AZD2811] (first compound max 10 µM, 7x7, partner max 1 µM)
[2]
  Bliss excess: -0.0166
[3]
  Bliss excess: -0.0731
[4]
  Bliss excess: 0.0086
[6]
  combination Emax: 0.949

## Cn1cnc2c(F)c(Nc3ccc(Br)cc3Cl)c(C(=O)NOCCO)cc21 [Selumetinib] + C[C@@H]1COCCN1C2=NC(=NC(=C2)C3(CC3)[S@](=N)(=O)C)C4=C5C=CNC5=NC=C4 [AZD6738] (first compound max 10 µM, 7x7, partner max 10 µM)
[2]
  Bliss excess: -0.0395
[3]
  Bliss excess: -0.0779
[4]
  Bliss excess: -0.0941
[6]
  combination Emax: 0.943

## Cc1nc(-c2cn3c(n2)-c2ccc(-c4cnn(C(C)(C)C(N)=O)c4)cc2OCC3)n(C(C)C)n1 [Taselisib] + O=C(Nc1ccc2[nH]nc(-c3ccncc3)c2c1)[C@@H]1CCN(CC(=O)N2CCN(c3ccc(-c4ncccn4)cc3)CC2)C1 [SCH772984] (first compound max 10 µM, 7x7, partner max 5 µM)
[2]
  Bliss excess: 0.005
[3]
  Bliss excess: 0.0569
[4]
  Bliss excess: 0.0661
[6]
  combination Emax: 0.941
